Assay results reported in patent publication US20260265304A1, “PEPTIDE INHIBITORS OF FOCAL ADHESION KINASE ACTIVITY AND USES THEREOF” (Arizona Board of Regents on Behalf of the University of …, priority 2019, published 2026).
Where two headings read alike, the source gives them in different places. Blank lines part the entries; values can stand above or below the molecule they belong to. Positions of bridges follow the written chain, without caps; N, C: chain ends. Non-standard residues stand in square brackets, D forms with d. Residues, ends and D or L forms follow the SMILES beside them. *: point of attachment. Myristoyl = CCCCCCCCCCCCCC(=O)*; R8 = C=CCCCCCC[C@@](C)(N)C(=O)O; S5 = C=CCCC[C@](C)(N)C(=O)O

Experiments:
[1] = tested on: SK-MEL-103 melanoma cells; test: 3D Matrigel-on-top proliferation assay; format: cell-based
Procedure: (§1) B. Competition FP experiment with 1907 showing inhibition of TAMRA-LD2 binding to FAT. C. SPR binding and selectivity analysis using WT FAT and Mutant FAT (L994E, 1936A) at the helix-protein interface. D. Flow cytometry analysis of Rhodamine-1907 (10 μM) cellular uptake in MDA-MB-453 breast cancer cells. E. Boyden-chamber invasion assays in SK-MEL-103 melanoma cells. F. 3D Matrigel-on-top proliferation assays in SK-MEL-103 melanoma cells.
B. 3D structure of negative control molecule (UACC-2020). C. 3D Matrigel-on-top cell proliferation data of stapled peptides in SK-MEL-103 melanoma cells.
A negative control myristoylated peptide (2020) was designed and synthesized based on non-active molecule 2014. Experiments were conducted to test the efficacy of these peptides in 3D proliferation assays using SK-MEL-103 melanoma cells. […] Furthermore, 2012 had no effects on the proliferation of normal HUVEC cells (IC50=NA) (FIG. 7).

[2] = biological target: T1, FAK FAT domain (paxillin-FAT binding) (Homo sapiens, UniProt Q05397); test: Competition fluorescence polarization (FP) assay, inhibition of TAMRA-LD2 binding to FAT; details: read-out: FP Ki
T1 construct: FP Buffer containing 20 μM FAT and 0.1 μM TAMRA-LD2
T1 sequence (Q05397 914-1045 limits assumed): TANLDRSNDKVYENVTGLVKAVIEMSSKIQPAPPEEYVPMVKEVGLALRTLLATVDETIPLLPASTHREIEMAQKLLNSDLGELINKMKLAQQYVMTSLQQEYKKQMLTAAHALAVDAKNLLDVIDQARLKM
Procedure: The FP assay buffer used was 20 mM Tris, 200 mM NaCl, 0.05% β-me, 0.1% Triton X-100, 5% glycerol, and 1× Halt protease inhibitor cocktail. […] Bodipy TMR FP optical module (2100-4100) was used as the mirror.
Wells with no FAT were used as a baseline value which was subtracted from the raw values to produce ΔmP values. The plate was read at every hour for four hours to test for time differences in IC50. The titration data was processed through GraphPad Prism to produce a dose response curve and a calculated IC50 with standard error (SE). A four-parameter dose-response inhibition model was utilized and the bottom fit was constrained to the lower plateau of the curve. Ki was determined from the following calculation:
P0 is the concentration of free protein and KD is calculated from the saturation curve. 150 is calculated by the following equation:
where PT is the total protein concentration, LT is the total labeled-ligand concentration, P0 is the positive root of P0^2+(KD+LT)*P0−PT, PL0=P−P0, PL50=PL0/2, L0=LT-PL0, and L50=LT-PL50.

[3] = biological target: T2, FAK FAT domain (biotinylated Avitag-FAT protein) (Homo sapiens, UniProt Q05397); test: Surface plasmon resonance (SPR) binding to immobilised FAT protein; details: FAT protein immobilised, peptide 200 μM-0.01 μM, 1:1 binding model; read-out: SPR KD
T2 construct: biotinylated Avitag-FAT protein was diluted in running buffer
T2 sequence (Q05397 914-1045 limits assumed): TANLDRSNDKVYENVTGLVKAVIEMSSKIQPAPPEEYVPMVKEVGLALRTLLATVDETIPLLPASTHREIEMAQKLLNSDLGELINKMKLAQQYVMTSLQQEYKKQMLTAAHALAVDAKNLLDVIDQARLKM
Procedure: SPR binding studies were performed on a ForteBio Pioneer FE SPR system. In brief, a SADH Streptavidin in Dextran Hydrogel biosensor (ForteBio) was docked onto the flow cell and preconditioned with two injections of 10 mM NaOH, 1 M NaCl for 1 min at 50 μL/min. […] Empty channel 2 served as the reference control. After achieving a stable baseline, a concentration series (200 μM-0.01 μM) of peptide was prepared in final running buffer (100 mM Tris-HCl, 200 mM NaCl, 0.05% Tween-20, 5% DMSO) and injected using the OneStep gradient injection method at a flow rate of 75 μL/min. […] Raw SPR data were appropriately processed in Qdat software (ForteBio) by normalizing the baseline prior to injection, aligning the channels, subtraction of the reference channel, and blank subtraction. Kinetic data were fitted to a pseudo-first order 1:1 interaction binding model using to calculate KD. In addition, a steady-state model and Req data points were used to validate the binding affinity. Visual inspection of the SPR sensograms was performed to verify appropriate model fitting, lack of mass transport effects, return to baseline, and lack of irregular kinetics.

[4] = tested on: MDA-MB-453 breast cancer cells; test: Flow cytometry-based cell permeability assay; details: MDA-MB-453 cells, 10 μM, compared to Rhodamine only control
Procedure: as §1
(§2) To further evaluate the activity of 1907, experiments were conducted that tested the peptide in a flow cytometry-based cell permeability assay. […] Experiments were also conducted to test the cellular efficacy in SK-MEL-103 melanoma cells.
Flow cytometry assays performed on the Canto II flow cytometer (BD Biosciences) were utilized to measure cellular uptake of TAMRA-tagged peptides. In brief, the instrument was properly gated using cells treated with TAMRA-only as a positive control. Also, cells treated with untagged peptide were used as a negative control to rule out non-specific signal. Cells were treated with TAMRA-tagged peptides for a duration of 2 h-48 h to measure cellular uptake. Permeability of peptide was reported as % positivity relative to TAMRA positive control and mean fluorescence intensity (MFI).

[5] = biological target: T3, trypsin (Bos taurus, UniProt P00760); test: In vitro trypsin digest assay (trypsin-agarose beads, LC-MS); format: in vitro ADME; details: trypsin-agarose beads in physiological buffer, read-out: t1/2 in trypsin digest (protease resistance) (converted)
T3 construct: purchased ThermoFisher
T3 sequence (P00760 24-246): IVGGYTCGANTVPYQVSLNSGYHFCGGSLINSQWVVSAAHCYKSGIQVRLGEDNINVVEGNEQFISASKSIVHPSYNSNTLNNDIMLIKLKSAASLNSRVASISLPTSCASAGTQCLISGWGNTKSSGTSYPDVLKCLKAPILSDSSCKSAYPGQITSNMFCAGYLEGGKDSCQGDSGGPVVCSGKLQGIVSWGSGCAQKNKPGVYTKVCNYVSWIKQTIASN
Procedure: Assays were performed using trypsin-agarose beads (ThermoFisher) and measurement of peptide concentration using LC-MS. Peptide half-lives were calculated using GraphPad Prism software.
Trypsin-agarose beads were used to test the potential cleavage of peptides in a physiological buffer and LC-MS was used as the analytical method to determine peptide concentration.

[6] = biological target: T2, FAK FAT domain (biotinylated Avitag-FAT protein); test: Surface plasmon resonance (SPR) binding to immobilised FAT protein; details: two-site binding model
[7] = tested on: SK-MEL-103 melanoma cells; test: Boyden-chamber invasion assay; format: cell-based; details: SK-MEL-103, compared to Defactinib relative to compound KD
Procedure: as §1, §2

[8] = biological target: T4, biotinylated Avitag-FAT protein (UniProt Q05397 919-1052, limits assumed, biotinylated (Avitag)); test: SPR, biotinylated Avitag-FAT immobilised
T4 construct: domain: FAT; Immobilised on a streptavidin sensor for SPR; also called WT FAT; FAT domain of FAK; not shown: Avitag
T4 sequence (looked up): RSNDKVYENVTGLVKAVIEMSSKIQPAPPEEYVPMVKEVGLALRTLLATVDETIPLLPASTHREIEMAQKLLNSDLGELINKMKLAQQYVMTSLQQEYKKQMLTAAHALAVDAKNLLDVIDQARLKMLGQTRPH
Procedure: SPR binding studies were performed on a ForteBio Pioneer FE SPR system. In brief, a SADH Streptavidin in Dextran Hydrogel biosensor (ForteBio) was docked onto the flow cell and preconditioned with two injections of 10 mM NaOH, 1 M NaCl for 1 min at 50 μL/min. […] Empty channel 2 served as the reference control. After achieving a stable baseline, a concentration series (200 μM-0.01 μM) of peptide was prepared in final running buffer (100 mM Tris-HCl, 200 mM NaCl, 0.05% Tween-20, 5% DMSO) and injected using the OneStep gradient injection method at a flow rate of 75 μL/min. 3% sucrose was utilized as a bulk standard control for OneStep injection and a DMSO calibration curve was performed using a concentration range of 3.5% to 6.5% DMSO. Raw SPR data were appropriately processed in Qdat software (ForteBio) by normalizing the baseline prior to injection, aligning the channels, subtraction of the reference channel, and blank subtraction. Kinetic data were fitted to a pseudo-first order 1:1 interaction binding model using to calculate KD. In addition, a steady-state model and Req data points were used to validate the binding affinity. Visual inspection of the SPR sensograms was performed to verify appropriate model fitting, lack of mass transport effects, return to baseline, and lack of irregular kinetics.

[9] = SK-MEL-103 melanoma cells, 3D Matrigel-on-top

Molecule: CCCCCCCCCCCCCC(=O)N[C@@H](CC(N)=O)C(=O)N[C@@H](CC(C)C)C(=O)N[C@]1(C)CCCCCCC=CCCC[C@@](C)(C(=O)N[C@@H](CCC(=O)O)C(=O)N[C@@H](CCC(=O)O)C(=O)N[C@@H](CC(N)=O)C(N)=O)NC(=O)[C@H](CC(C)C)NC(=O)[C@H](CC(C)C)NC(=O)[C@H](CCCNC(=N)N)NC(=O)[C@H](CC(=O)O)NC(=O)[C@H](CCC(=O)O)NC(=O)[C@H](CCC(=O)O)NC1=O [Peptide 2020, Myristoyl-NLR8EEDRLLS5EEN-NH2] (Myristoyl-NL[R8]EEDRLL[S5]EEN-NH2; staple 3-10)
3D proliferation IC50 [1, 9]: no effect | Ki [2]: > 1250 µM | Kd [3]: > 200 µM

Molecule: CCN(CC)c1ccc2c(-c3ccccc3C(=O)NCCC(=O)N[C@@H](CC(N)=O)C(=O)N[C@@H](CC(C)C)C(=O)N[C@]3(C)CCCCCCC=CCCC[C@@](C)(C(=O)N[C@@H](CCC(=O)O)C(=O)N[C@@H](CC(C)C)C(=O)N[C@@H](CC(N)=O)C(N)=O)NC(=O)[C@H](CC(C)C)NC(=O)[C@H](CC(C)C)NC(=O)[C@H](CCCNC(=N)N)NC(=O)[C@H](CC(=O)O)NC(=O)[C@H](CC(C)C)NC(=O)[C@H](CCC(=O)O)NC3=O)c3ccc(=[N+](CC)CC)cc-3oc2c1 [Peptide 2016, RhoB-1907]
cellular uptake / crossing of the cell membrane [4]: successfully crossed the cell membrane

Molecule: CC(=O)N[C@@H](CC(N)=O)C(=O)N[C@@H](CC(C)C)C(=O)N[C@@H](CO)C(=O)N[C@@H](CCC(=O)O)C(=O)N[C@@H](CC(C)C)C(=O)N[C@@H](CC(=O)O)C(=O)N[C@@H](CCCNC(=N)N)C(=O)N[C@@H](CC(C)C)C(=O)N[C@@H](CC(C)C)C(=O)N[C@@H](CC(C)C)C(=O)N[C@@H](CCC(=O)O)C(=O)N[C@@H](CC(C)C)C(=O)N[C@@H](CC(N)=O)C(N)=O [Peptide 1967, reference compound]
half-life [5]: 0.69 h

Molecule: CC(=O)N[C@@H](CC(N)=O)C(=O)N[C@@H](CC(C)C)C(=O)N[C@]1(C)CCCCCCC=CCCC[C@@](C)(C(=O)N[C@@H](CCC(=O)O)C(=O)N[C@@H](CC(C)C)C(=O)N[C@@H](CC(N)=O)C(N)=O)NC(=O)[C@H](CC(C)C)NC(=O)[C@H](CC(C)C)NC(=O)[C@H](CCCCN)NC(=O)[C@H](CC(=O)O)NC(=O)[C@H](CC(C)C)NC(=O)[C@H](CCC(=O)O)NC1=O [Peptide 2028, Ac-NLR8ELDKLLS5ELN-NH2] (Ac-NL[R8]ELDKLL[S5]ELN-NH2; staple 3-10)
Kd ([6]; SPR KD (1), site (1)): 1.36 µM | Kd ([6]; read-out: SPR KD (2), site (2)): 10.9 µM

Molecule: CC(=O)N[C@@H](CC(N)=O)C(=O)N[C@@H](CC(C)C)C(=O)N[C@]1(C)CCCCCC/C=C/CCC[C@@](C)(C(=O)N[C@@H](CCC(=O)O)C(=O)N[C@@H](CC(C)C)C(=O)N[C@@H](CC(N)=O)C(N)=O)NC(=O)[C@H](CC(C)C)NC(=O)[C@H](CC(C)C)NC(=O)[C@H](CCCNC(=N)N)NC(=O)[C@H](CC(=O)O)NC(=O)[C@H](CC(C)C)NC(=O)[C@H](CCC(=O)O)NC1=O [Peptide 1907, Ac-NLR8ELDRLLS5ELN-NH2]
inhibition of 3D proliferation ([1]; SK-MEL-103, compared to Defactinib relative to compound KD): effectively inhibited | IC50 [1, 9]: 60 µM | half-life [5]: 15.7 h | inhibition of invasion [7]: effectively inhibited

More lines, now with the values ahead:

Kd [8]: 6.95 µM
B1: 1920 (peptide)
peptide: Ac-SLGSNL[R8]ELDRLL[S5]ELNAVQH-NH2
modifications: staple 7-14
SMILES: CC(=O)N[C@@H](CO)C(=O)N[C@@H](CC(C)C)C(=O)NCC(=O)N[C@@H](CO)C(=O)N[C@@H](CC(N)=O)C(=O)N[C@@H](CC(C)C)C(=O)N[C@]1(C)CCCCCCC=CCCC[C@@](C)(C(=O)N[C@@H](CCC(=O)O)C(=O)N[C@@H](CC(C)C)C(=O)N[C@@H](CC(N)=O)C(=O)N[C@@H](C)C(=O)N[C@H](C(=O)N[C@@H](CCC(N)=O)C(=O)N[C@@H](Cc2c[nH]cn2)C(N)=O)C(C)C)NC(=O)[C@H](CC(C)C)NC(=O)[C@H](CC(C)C)NC(=O)[C@H](CCCNC(=N)N)NC(=O)[C@H](CC(=O)O)NC(=O)[C@H](CC(C)C)NC(=O)[C@H](CCC(=O)O)NC1=O

Kd [8]: > 200 µM
B2: 2011 (peptide)
peptide: Ac-[R8]ELDRLL[S5]-NH2
modifications: staple 1-8

Kd [8]: > 200 µM
B3: 2014 (peptide)
peptide: Ac-NL[R8]EEDRLL[S5]EEN-NH2
modifications: staple 3-10
SMILES: CC(=O)N[C@@H](CC(N)=O)C(=O)N[C@@H](CC(C)C)C(=O)N[C@]1(C)CCCCCCC=CCCC[C@@](C)(C(=O)N[C@@H](CCC(=O)O)C(=O)N[C@@H](CCC(=O)O)C(=O)N[C@@H](CC(N)=O)C(N)=O)NC(=O)[C@H](CC(C)C)NC(=O)[C@H](CC(C)C)NC(=O)[C@H](CCCNC(=N)N)NC(=O)[C@H](CC(=O)O)NC(=O)[C@H](CCC(=O)O)NC(=O)[C@H](CCC(=O)O)NC1=O
notes: non-active molecule
